According to patent publication US20060069132A1, “Azolecarboxamide herbicides” (priority 2004, published 2006):

Tests used:
[1] = test system: rice; assay: Test B flooded paddy test; format: in vivo, Oryza sativa; conditions: 1000 g ai/ha, scale 0 to 100 (0 no effect, 100 complete control)
Summary of the method: (§1)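 Paddy species grown to the 2-leaf stage under flooding; blackgrass sprayed postemergence at 2–18 cm (1- to 4-leaf stage). Plants kept in a greenhouse for 13 to 15 days, then visually rated against controls on 0 (no effect) to 100 (complete control).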

[2] = test system: small flower umbrella sedge; assay: Test B flooded paddy test; format: in vivo, Cyperus difformis; conditions: 1000 g ai/ha, scale 0 to 100 (0 no effect, 100 complete control)
Summary of the method: as §1

[3] = test system: pigweed; assay: Test B pre-/postemergence herbicide test; format: in vivo, Amaranthus retroflexus; conditions: for Pigweed plant response rating: postemergence
Summary of the method: (§2)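 Test chemicals in a non-phytotoxic solvent mixture with surfactant were applied preemergence to seeded species and postemergence to plants 2-18 cm tall (1- to 4-leaf stage); rice and barnyardgrass were also tested in a flooded paddy at the 2-leaf stage. Visual rating versus controls after 13-15 days in greenhouse, scale 0 (no effect) to 100 (complete control).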

[4] = test system: corn; assay: Test B pre-/postemergence herbicide test; format: in vivo, Zea mays; conditions: for Corn plant response rating: postemergence
Summary of the method: as §2

[5] = test system: large crabgrass; assay: Test B pre-/postemergence herbicide test; format: in vivo, Digitaria sanguinalis; conditions: for Crabgrass, Large plant response rating: postemergence
Summary of the method: as §2

[6] = test system: velvetleaf; assay: Test B pre-/postemergence herbicide test; format: in vivo, Abutilon theophrasti; conditions: for Velvetleaf plant response rating: postemergence
Summary of the method: as §2

[7] = test system: wild oat; assay: Test B postemergence herbicide test; format: in vivo, Avena fatua; conditions: postemergence
Summary of the method: (§3)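 Scale 0–100: zero equals no visible effect, 100 complete control, judged by eye relative to controls. Timing: 13 to 15 days in greenhouse post-treatment. Growth stage at spraying: two leaves (paddy) or one to four leaves, 2–18 cm (postemergence).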

[8] = test system: giant foxtail; assay: Test B pre-/postemergence herbicide test; format: in vivo, Setaria faberi; conditions: for Foxtail, Giant plant response rating: postemergence
Summary of the method: as §2

[9] = test system: wheat; assay: Test B postemergence herbicide test; format: in vivo, Triticum aestivum; design: key to Wheat plant response rating: 0 = no effect, 100 = complete control; conditions: postemergence
Summary of the method: as §3

[10] = test system: Surinam grass; assay: Test B pre-/postemergence herbicide test; format: in vivo, Urochloa decumbens; conditions: for Surinam Grass plant response rating: postemergence
Summary of the method: as §2

[11] = test system: barnyardgrass; assay: Test B pre-/postemergence herbicide test; format: in vivo, Echinochloa crus-galli; conditions: for Barnyardgrass plant response rating: postemergence
Summary of the method: as §2

[12] = test system: blackgrass; assay: Test B postemergence herbicide test; format: in vivo, Alopecurus myosuroides; conditions: postemergence
Summary of the method: as §1

[13] = test system: lambsquarters; assay: Test B pre-/postemergence herbicide test; format: in vivo, Chenopodium album; conditions: for Lambsquarters plant response rating: postemergence
Summary of the method: as §2

[14] = test system: morningglory; assay: Test B pre-/postemergence herbicide test; format: in vivo, Ipomoea coccinea; conditions: for Morningglory plant response rating: postemergence
Summary of the method: as §2

[15] = test system: ducksalad; assay: Test B flooded paddy test; format: in vivo, Heteranthera limosa; conditions: 1000 g ai/ha, scale 0 to 100 (0 no effect, 100 complete control)
Summary of the method: as §1

[16] = 125 g ai/ha, 0 is no effect, 100 is complete control, preemergence
[17] = 125 g ai/ha, visual rating, scale 0 (no effect) to 100 (complete control)
[18] = 500 g ai/ha, visual rating, 0 = no effect, 100 = complete control, preemergence
[19] = 500 g ai/ha, scale 0 to 100, 0 is no effect, 100 is complete control

CCn1nc(C(C)(C)C)cc1C(=O)Nc1cc(C(=S)N(C)C)ccn1 [Compound 334]
Rice plant response rating [1]: 80 | Sedge, Umbrella plant response rating [2]: 80 | Plant response rating (0 to 100 scale), Pigweed [3, 16]: 60 | Pigweed plant response rating [3, 17]: 40 | Plant response rating, Pigweed [3, 18]: 100 | Pigweed plant response rating [3, 19]: 70 | Plant response rating (0 to 100 scale), Corn [4, 16]: 20 | Corn plant response rating [4, 17]: 0 | Plant response rating, Corn [4, 18]: 70 | Corn plant response rating [4, 19]: 20 | Plant response rating (0 to 100 scale), Crabgrass, Large [5, 16]: 90 | Crabgrass, Large plant response rating [5, 17]: 10 | Plant response rating, Crabgrass, Large [5, 18]: 100 | Crabgrass, Large plant response rating [5, 19]: 50 | Plant response rating (0 to 100 scale), Velvetleaf [6, 16]: 100 | Velvetleaf plant response rating [6, 17]: 50 | Velvetleaf plant response rating [6, 19]: 60 | Oat, Wild plant response rating [7, 17]: 20 | Oat, Wild plant response rating [7, 19]: 30 | Plant response rating (0 to 100 scale), Foxtail, Giant [8, 16]: 90 | Foxtail, Giant plant response rating [8, 17]: 10 | Plant response rating, Foxtail, Giant [8, 18]: 100 | Foxtail, Giant plant response rating [8, 19]: 60 | Wheat plant response rating [9, 17]: 10 | Wheat plant response rating [9, 19]: 20 | Plant response rating (0 to 100 scale), Surinam Grass [10, 16]: 80 | Surinam Grass plant response rating [10, 17]: 20 | Plant response rating, Surinam Grass [10, 18]: 100 | Surinam Grass plant response rating [10, 19]: 50 | Plant response rating (0 to 100 scale), Barnyardgrass [11, 16]: 90 | Barnyardgrass plant response rating [11, 17]: 0 | Plant response rating, Barnyardgrass [11, 18]: 100 | Barnyardgrass plant response rating [11, 19]: 60 | Blackgrass plant response rating [12, 17]: 30 | Blackgrass plant response rating [12, 19]: 70 | Plant response rating (0 to 100 scale), Lambsquarters [13, 16]: 100 | Lambsquarters plant response rating [13, 17]: 70 | Plant response rating, Lambsquarters [13, 18]: 100 | Lambsquarters plant response rating [13, 19]: 90 | Plant response rating (0 to 100 scale), Morningglory [14, 16]: 0 | Morningglory plant response rating [14, 17]: 50 | Plant response rating, Morningglory [14, 18]: 70 | Morningglory plant response rating [14, 19]: 80 | Ducksalad plant response rating [15]: 90
